# From patent US20040197268A1, “Method of imaging amyloid deposits using substituted rhodanine derivatives” (priority 1999, published 2004)
# Tests used:
# [1] = biological target: T1, beta amyloid peptide Aβ(1-40) (Homo sapiens, UniProt P05067); test: BAPA (Beta-Amyloid Peptide Aggregation), pH 6.0; assay type: biochemical; conditions: Aβ(1-40) 33 μM, pH 6.0, 2 to 4 hours at room temperature, filtration
# T1 construct: 0.5 mg/mL AP (140) peptide in 20% HFIP+0.1 μL/assay radioiodinated ^125I Aβ(1-40)
# Method: BAPA (Beta-Amyloid Peptide Aggregation)
# This assay is used to provide a measure of inhibition by a compound against the aggregation behavior of the beta amyloid peptide.
# The purpose of this assay is to provide a higher volume method of assaying the amount of beta amyloid aggregation using an endpoint assay based on filtration. In this assay, hexafluoroisopropanol (HFIP) is used to break down the initial amyloid peptide to a monomer state and use a concentration of 33 μM which is high enough so that aggregation will occur at pH 6.0 in several hours.
# β-Amyloid Peptide Aggregation, pH 6.0 (BAPA)
# In a 96-well plate (Costar 3794), we add […] 50 mM Phosphate Buffer, pH 6.0, 10 μL 0.5 mg/mL AP (140) peptide in 20% HFIP+0.1 μL/assay radioiodinated ^125I Aβ(1-40) [^125I Aβ(1-40)], and 1 μL of the compound to be tested starting at 50 mM with a concentration of DMSO <1%. Then, we incubate for 2 to 4 hours at room temperature. We stop the reaction with […] of 50 mM phosphate buffer, pH 6.0, and filter it through a 0.2 μm 96-well filter plate (Millipore MAGU N22). We wash the filter plate with 100 μL of the same phosphate buffer. Aggregation was detected on a Microbeta counter after impregnating the filters with Meltilex (1450-441) and is corrected for background.
# [2] = biological target: T2, Aβ(1-40) (Homo sapiens, UniProt P05067); test: BASST (Beta-Amyloid Self-Seeding, ThioflavinT), inhibitors of self-seeded amyloid fibril growth; assay type: biochemical; conditions: 30 μM soluble Aβ(1-40), pH 7.5, 37° C., 3 to 5 hours, thioflavin T fluorescence
# T2 construct: Soluble Aβ(1-40) peptide (Bachem, Torrance, Calif.); purchased Bachem, Torrance, Calif
# Method: BASST (Beta-Amyloid Self-Seeding, ThioflavinT)
# (§1) An assay for inhibitors of self-seeded amyloid fibril growth
# Assay Buffer—50 mM sodium phosphate, pH 7.5, 100 mM NaCl, 0.02% NaN3, 1 M urea (filter and store at 4° C.).
# Soluble Aβ(1-40)—2.2 mg/mL in deionized H2O (store in aliquots at −20° C., keep on ice when thawed) will self-seed after 1 week storage. Typically, the solution should be stored until no lag phase is seen in the assay.
# Final assay conditions: 30 μM soluble Aβ(1-40) in deionized water in assay buffer. Compound to be tested is dissolved in DMSO, typically 5-50 mM stock, such that the final concentration of DMSO is <1% v/v in the assay.
# Assay: Reaction mixture for 50 assays (on ice) comprised of 1 μL of soluble Aβ(1-40)+13.5 μL assay buffer per assay. The following are the amounts of the components of the reaction mixture that result in each of the 50 assay wells.
# 1) Prepare the reaction mix above by mixing the components and storing on ice.
# 2) Pipet […] of reaction mixture into each of 50 wells of a polystyrene U-bottom 96-well microtiter plate (Corning 25881-96) on ice.
# (§2) 3) Add 1.7 mL of diluted compound to be tested to each well in a column of eight, including solvent control. Serial 3-fold dilutions from 1 mM (100 μM final) in assay buffer−urea=7 dilutions+zero. Each 96-well plate can therefore accommodate 11 samples+1 Congo Red control (0.039-5 μM final in 2-fold steps).
# 4) Seal the plate with aluminum film and incubate for 10 minutes on ice.
# 5) Raise the temperature to 37° C. and incubate for 3 to 5 hours (depends on the lot of the peptide).
# 6) Remove the aluminum film and add 250 μL/well of 5 μM thioflavin T (ThT) [T-3516, Sigma-Aldrich] in 50 mM glycine-NaOH, pH 8.5. Read fluorescence on a plate reader (ex=440 nm/20 nm; em=485 nm/20 nm) within 5 minutes.
# [3] = biological target: T2, Aβ(1-40); test: BASSR (Beta-Amyloid Self-Seeding Radioassay), inhibitors of self-seeded amyloid fibril growth; assay type: biochemical; conditions: 30 μM soluble Aβ(1-40) + 125I-labeled Aβ(1-40), pH 7.5, 37° C., 3 to 5 hours, filtration
# Method: BASSR (Beta-Amyloid Self-Seeding Radioassay)
# as §1
# Assay Buffer—50 mM sodium phosphate, pH 7.5, 100 mM NaCl, 0.02% NaN3, 1 M urea (filter and store at 4° C.)
# Soluble Aβ(1-40) peptide (Bachem, Torrance, Calif.)—2.2 mg/mL in deionized H2O (stored in aliquots at −20° C., keep on ice when thawed) will self-seed after 1 week storage. Typically, the solution should be stored until no lag phase is seen in the assay.
# ^125I-labeled Aβ(1-40)—150K-350K cpm/μL in 100% acetonitrile—0.1% trifluoroacetic acid (TFA)—1% β-mercaptoethanol (aliquots stored at −20° C.). ^125I-labeled Aβ(1-40) can be made in accordance with the procedure set forth by H. Levine, III in Neurobiol. Aging, 16:755 (1995), which is hereby incorporated by reference, or this reagent may be purchased from Amersham, Arlington Heights, Ill.
# Final assay conditions: 30 μM soluble Aβ(1-40) in deionized water in assay buffer+20-50K cpm ^125I-labeled Aβ(1-40) per assay. Compound to be tested is dissolved in dimethylsulfoxide (DMSO), typically 5-50 mM stock, such that the final concentration of DMSO is <1% v/v in the assay.
# Assay: Reaction mixture for 50 assays (on ice) is comprised of 0.1-0.2 μL of […] ^125I-labeled Aβ(1-40)+1 μL of soluble Aβ(1-40)+13.5 μL assay buffer per assay. The following are the amounts of the components of the reaction mixture sufficient for 50 assay wells.
# 1) Prepare reaction mixture above by mixing components and storing on ice.
# 2) Pipet 14.5 μL of reaction mixture into each of 50 wells on a polypropylene U-bottom 96-well microtiter plate on ice (Costar 3794).
# as §2, with “μL” for “mL”
# 4) Seal the plate with aluminum film (Beckman 538619) and incubate for 10 minutes on ice.
# 5) Raise the temperature to 37° C. and incubate for 3 to 5 hours (depending on the lot of the peptide).
# 6) Remove the aluminum film and add 200 μL/well of ice cold assay buffer with urea, collecting the radiolabeled fibrils by vacuum filtration through 0.2 μm pore size GVWP filters in 96-well plates (Millipore MAGV N22, Bedford, Mass.). Determine the radioactivity of the filters using standard methods well-known to those skilled in the art.
# [4] = biological target: T3, Aβ(1-42) (Homo sapiens, UniProt P05067); test: BATYM Assay (Aβ(1-42) aggregation, Thioflavin T fluorescence); assay type: biochemical; conditions: Aβ 1-42 final concentration 100 μM, PBS pH 7.4, 37° C., 1 day, ThT fluorescence
# T3 construct: Required Aβ(1-42)(California Peptide) was dried from its hexafluoroisopropanol (HFIP) stock solution; purchased California Peptide
# Method: Required Aβ(1-42)(California Peptide) was dried from its hexafluoroisopropanol (HFIP) stock solution. The Aβ(1-42) was dissolved in dimethylsulfoxide (DMSO) and then mixed with phosphate buffered saline, (PBS) (pH 7.4). The mixed Aβ(1-42) solution was filtered with a 0.2 μm Omnipore membrane syringe filter (Millipore, Bedford, Mass.). The compound to be tested in DMSO (50 times concentrate) was put into each well (0.5 μL/well) of a 96-well plate. The Aβ(1-42) solution was added into each well (24.5 μL/well). The plate was centrifuged at 1,000 g for 5 minutes and incubated at 37° C. for 1 day (Aβ 1-42; final concentration 100 μM).
# After incubation Thioflavin T (ThT) (30 μM) solution in glycine-NaOH buffer (pH 8.5, 50 mM) was added into each well (250 μL/well), fluorescence was measured (ex. 440/20 nm; em 485/20 nm) using a fluorescence plate reader. The inhibitory activity was calculated as the reduction of fluorescence with the following formula:
# inhibition (%)={(F(Aβ)−F(Aβ+compound)}/{F(Aβ)−F(solvent+compound)}×100
# The IC50s were calculated by a curve fitting program using the following equation. The data were obtained from two different experiments in triplicate.
# x=concentration of tested compound (M),
# T3 sequence (P05067 672-713 limits assumed): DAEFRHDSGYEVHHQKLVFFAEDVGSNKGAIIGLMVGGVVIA
# T2 sequence (P05067 672-711 limits assumed): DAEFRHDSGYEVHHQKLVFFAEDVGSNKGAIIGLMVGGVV
# T1 sequence (P05067 672-711 limits assumed): as above
Structure (SMILES),IC50 [1] [µM],IC50 [2] [µM],IC50 [3] [µM],melting point [°C],IC50 [4] [µM]
"CCCCCCN(C)c1ccc(/C=C2\SC(=S)N(CCS(=O)(=O)NC(=O)C(F)(F)F)C2=O)cc1 [Example 3, (Z) 2-{5-[4-(Hexyl-methyl-amino)-benzylidene]-4-oxo-2-thioxo-thiazolidin-3-yl}-ethanesulfonic acid trifluoroacetyl-amide]",> 100,0.3,8,158 to 162,2.24
"CCCCCCN(C)c1ccc(/C=C2\SC(=S)N(CC(=O)NS(C)(=O)=O)C2=O)cc1 [Example 5, (Z) N-({5-[4-(Hexyl-methyl-amino)-benzylidene]4-oxo-2-thioxo-thiazolidin-3-yl}-acetyl)methanesulfonamide]",> 10,0.8,9,227 to 230,1.83
"CCCCCCN(C)c1ccc(/C=C2\SC(=S)N(CC(=O)NS(=O)(=O)C(F)(F)F)C2=O)cc1 [Example 7, (Z) C,C,C-Trifluoro-N-({5-[4-(hexyl-methyl-amino)-benzylidene]4-oxo-2-thioxo-thiazolidin-3-yl}-acetyl)methanesulfonamide]",70,0.4,1,94 to 97,1.7
"CCCCCCN(C)c1ccc(/C=C2\SC(=S)N(CCNS(=O)(=O)c3ccccc3)C2=O)cc1 [Example 11, (Z) N(2-{5-[4-(Hexyl-methyl-amino)benzylidene]-4-oxo-2-thioxo-thiazolidin-3-yl}-ethyl)-benzenesulfonamide]",25,9,> 100,152 to 155,2.19
"CCCCCCN(C)c1ccc(/C=C2\SC(=S)N(CCNS(=O)(=O)C(F)(F)F)C2=O)cc1 [Example 12, (Z) C,C,C-Trifluoro-N-(2-{5-[4-(hexyl-methyl-amino)benzyldene]-4-oxo-2-thioxo-thiazolidin-3-yl}-ethyl)methanesulfonamide]",26,1,> 100,170 to 173,1.64
"CCCCCCN(C)c1ccc(/C=C2\SC(=S)N(CCNC(=O)C(F)(F)F)C2=O)cc1 [Example 13, (Z) 2,2,2-Trifluoro-N-(2-{5-[4(hexyl-methyl-amino)benzylidene]-4-oxo-2-thioxo-thiazolidin-3-yl}-ethyl)-acetamide]",28,10,> 100,136 to 139,3.5

# Stronger by IC50 [1], values ahead:
IC50 [1] [µM],IC50 [2] [µM],IC50 [3] [µM],melting point [°C],IC50 [4] [µM],Structure (SMILES)
6,3,> 100,228 to 230,8.26,"CCCCCCN(C)c1ccc(/C=C2\SC(=S)N(CC(=O)NC)C2=O)cc1 [Example 4, (Z) 2-{5-[4(Hexyl-methyl-amino)-benzylidene]-4-oxo-2-thioxo-thiazolidin-3-yl}-N-methyl-acetamide]"
3,28.5,> 100,134 to 138,2.92,"CCCCCN(CCCCC)c1ccc(/C=C2\SC(=S)N(CC(=O)NS(C)(=O)=O)C2=O)cc1 [Example 6, (Z) N-{5-[4-(Dipentylamino-benzylidene)4-oxo-2-thioxo-thiazolidin-3-yl]-acetyl}-methanesulfonamide]"
2.5,1,> 100,286 to 288,1.96,"CCCCCN(CCCCC)c1ccc(/C=C2\SC(=S)N(CC(=O)NS(=O)(=O)C(F)(F)F)C2=O)cc1 [Example 8, (Z) N-{5-[4-(Dipentylamino-benzylidene)-4-oxo-2-thioxo-thiazolidin-3-yl]-acetyl}-C,C,C-trifluoro-methanesulfonamide]"
4,1.75,> 100,173 to 177,2.15,"CCCCCCN(C)c1ccc(/C=C2\SC(=S)N(CC(=O)NS(=O)(=O)c3ccccc3)C2=O)cc1 [Example 9, (Z) N-({5-[4-(Hexyl-methyl-amino)benzylidene]-4-oxo-2-thioxo-thiazolidin-3-yl}-acetyl)benzenesulfonamide]"
8,1.1,> 100,150 to 153,2.51,"CCCCCCN(C)c1ccc(/C=C2\SC(=S)N(CCNS(C)(=O)=O)C2=O)cc1 [Example 10, (Z) N-(2-{5-[4-(Hexyl-methyl-amino)-benzylidene]-4-oxo-2-thioxo-thiazolin-3-yl}-ethyl)-methanesulfonamide]"
